Data published in the CheMixHub viscosity set.
± gives the uncertainty stated by the source.

Assay: xn = mol fraction of the nth substance listed

BrCCBr + C1CCCCC1
101.33 kPa
Conditions | viscosity [mPa·s]
298.15 K, x1 = 0.1283 | 0.8597 ± 0.011
298.15 K, x1 = 0.2453 | 0.8556 ± 0.01
298.15 K, x1 = 0.3514 | 0.926 ± 0.011
298.15 K, x1 = 0.4599 | 0.9659 ± 0.012
298.15 K, x1 = 0.5537 | 1.009 ± 0.012
298.15 K, x1 = 0.6465 | 1.105 ± 0.013
298.15 K, x1 = 0.7406 | 1.208 ± 0.014
298.15 K, x1 = 0.8327 | 1.311 ± 0.015
298.15 K, x1 = 0.91 | 1.45 ± 0.017
308.15 K, x1 = 0.1562 | 0.7122 ± 0.0089
308.15 K, x1 = 0.2398 | 0.7673 ± 0.0095
308.15 K, x1 = 0.3629 | 0.8116 ± 0.0099
308.15 K, x1 = 0.4545 | 0.8447 ± 0.01
308.15 K, x1 = 0.5559 | 0.9064 ± 0.011
308.15 K, x1 = 0.6741 | 1.021 ± 0.012
308.15 K, x1 = 0.7424 | 1.055 ± 0.012
308.15 K, x1 = 0.8334 | 1.145 ± 0.013
308.15 K, x1 = 0.9281 | 1.286 ± 0.015

C1COCCO1 + C1CCCCC1
viscosity [mPa·s], 101 kPa
Conditions | 298.15 K | 303.15 K | 308.15 K | 313.15 K | 318.15 K
x1 = 0.1001 | – | 0.793 ± 0.008 | – | – | –
x1 = 0.2073 | – | 0.783 ± 0.008 | – | – | –
x1 = 0.3007 | – | 0.785 ± 0.008 | – | – | –
x1 = 0.4018 | – | 0.787 ± 0.008 | – | – | –
x1 = 0.5018 | – | 0.815 ± 0.008 | – | – | –
x1 = 0.5983 | – | 0.841 ± 0.008 | – | – | –
x1 = 0.6997 | – | 0.882 ± 0.009 | – | – | –
x1 = 0.7992 | – | 0.934 ± 0.009 | – | – | –
x1 = 0.8901 | – | 1 ± 0.01 | – | – | –
x2 = 0.0864 | 1.083 ± 0.011 | 1.009 ± 0.01 | 0.936 ± 0.009 | 0.869 ± 0.009 | 0.808 ± 0.008
x2 = 0.2096 | 0.992 ± 0.01 | 0.917 ± 0.009 | 0.851 ± 0.009 | 0.792 ± 0.008 | 0.738 ± 0.007
x2 = 0.286 | 0.943 ± 0.009 | 0.876 ± 0.009 | 0.813 ± 0.008 | 0.756 ± 0.008 | 0.702 ± 0.007
x2 = 0.391 | 0.887 ± 0.009 | 0.82 ± 0.008 | 0.763 ± 0.008 | 0.709 ± 0.007 | 0.661 ± 0.007
x2 = 0.535 | 0.848 ± 0.009 | 0.785 ± 0.008 | 0.73 ± 0.007 | 0.676 ± 0.007 | 0.632 ± 0.007
x2 = 0.6125 | 0.831 ± 0.008 | 0.772 ± 0.008 | 0.715 ± 0.007 | 0.665 ± 0.007 | 0.621 ± 0.006
x2 = 0.685 | 0.821 ± 0.008 | 0.766 ± 0.008 | 0.711 ± 0.007 | 0.66 ± 0.007 | 0.617 ± 0.006
x2 = 0.773 | 0.824 ± 0.008 | 0.763 ± 0.008 | 0.708 ± 0.007 | 0.66 ± 0.007 | 0.614 ± 0.006
x2 = 0.8223 | 0.828 ± 0.008 | 0.768 ± 0.008 | 0.714 ± 0.007 | 0.663 ± 0.007 | 0.617 ± 0.006
x2 = 0.9303 | 0.847 ± 0.009 | 0.781 ± 0.008 | 0.724 ± 0.007 | 0.673 ± 0.007 | 0.627 ± 0.006

Brc1ccccc1 + C1CCOC1
viscosity [mPa·s], 101 kPa
Conditions | x2 = 0.1051 | x2 = 0.2012 | x2 = 0.3022 | x2 = 0.4031 | x2 = 0.4987
298.15 K | 1.014 ± 0.0082 | 0.9619 ± 0.0078 | 0.9067 ± 0.0074 | 0.8488 ± 0.007 | 0.7916 ± 0.0066
313.15 K | 0.8409 ± 0.007 | 0.8 ± 0.0067 | 0.7551 ± 0.0064 | 0.7079 ± 0.006 | 0.6622 ± 0.0057

CCC(C)Cl (configuration not stated) + C1CCOC1
298.15 K, 101 kPa
Conditions | viscosity [mPa·s]
x2 = 0.0544 | 0.3967 ± 0.0052
x2 = 0.111 | 0.3999 ± 0.0052
x2 = 0.2078 | 0.4057 ± 0.0052
x2 = 0.2947 | 0.411 ± 0.0052
x2 = 0.3996 | 0.4176 ± 0.0051
x2 = 0.5075 | 0.4246 ± 0.0051
x2 = 0.6041 | 0.4313 ± 0.0051
x2 = 0.7055 | 0.4387 ± 0.0051
x2 = 0.8076 | 0.4469 ± 0.0051
x2 = 0.9065 | 0.4551 ± 0.0051
x2 = 0.9544 | 0.4592 ± 0.0051

Brc1ccccc1 + C1CCOCC1
viscosity [mPa·s], 101 kPa
Conditions | x2 = 0.097 | x2 = 0.1996 | x2 = 0.3053 | x2 = 0.4011 | x2 = 0.5073
298.15 K | 1.05 ± 0.0085 | 1.037 ± 0.0084 | 1.021 ± 0.0083 | 1 ± 0.0081 | 0.9753 ± 0.0079
313.15 K | 0.8682 ± 0.0072 | 0.8547 ± 0.0071 | 0.8377 ± 0.007 | 0.8212 ± 0.0068 | 0.7989 ± 0.0067

Brc1ccccc1 + C1COCCO1
303.15 K, 101 kPa
Conditions | viscosity [mPa·s]
x1 = 0.083 | 1.075 ± 0.018
x1 = 0.17 | 1.078 ± 0.018
x1 = 0.259 | 1.122 ± 0.018
x1 = 0.352 | 1.131 ± 0.018
x1 = 0.449 | 1.125 ± 0.018
x1 = 0.55 | 1.115 ± 0.018
x1 = 0.655 | 1.108 ± 0.018
x1 = 0.766 | 1.079 ± 0.018
x1 = 0.88 | 1.034 ± 0.017

COc1ccccc1O + C1COCCO1
308.15 K, 101 kPa
Conditions | viscosity [mPa·s]
x2 = 0.1 | 4.29 ± 0.053
x2 = 0.2 | 4.18 ± 0.051
x2 = 0.3 | 3.795 ± 0.047
x2 = 0.4 | 3.347 ± 0.041
x2 = 0.5 | 2.73 ± 0.034
x2 = 0.6 | 2.231 ± 0.028
x2 = 0.7 | 1.834 ± 0.023
x2 = 0.8 | 1.453 ± 0.018
x2 = 0.9 | 1.172 ± 0.015

C1=C[C@H]2[C@@H](C1)[C@H]1C=C[C@@H]2C1 + CC1CCCCC1
viscosity [mPa·s], 101.2 kPa
Conditions | x1 = 0.0987 | x1 = 0.2012 | x1 = 0.3023 | x1 = 0.4007 | x1 = 0.5024 | x1 = 0.6001 | x1 = 0.6994 | x1 = 0.8017 | x1 = 0.9021
293.15 K | 0.8197 ± 0.043 | 0.9187 ± 0.049 | 1.043 ± 0.058 | 1.198 ± 0.07 | 1.398 ± 0.085 | 1.646 ± 0.11 | 2.032 ± 0.15 | 2.607 ± 0.21 | 3.386 ± 0.28
298.15 K | 0.7605 ± 0.04 | 0.8517 ± 0.046 | 0.9677 ± 0.053 | 1.1 ± 0.063 | 1.28 ± 0.077 | 1.504 ± 0.1 | 1.855 ± 0.14 | 2.367 ± 0.18 | 3.029 ± 0.24
303.15 K | 0.7145 ± 0.037 | 0.791 ± 0.042 | 0.8907 ± 0.049 | 1.011 ± 0.058 | 1.178 ± 0.071 | 1.387 ± 0.091 | 1.693 ± 0.12 | 2.156 ± 0.16 | 2.723 ± 0.21
308.15 K | 0.6717 ± 0.035 | 0.7439 ± 0.039 | 0.8387 ± 0.046 | 0.9497 ± 0.055 | 1.109 ± 0.068 | 1.306 ± 0.085 | 1.586 ± 0.11 | 1.993 ± 0.14 | 2.477 ± 0.18
313.15 K | 0.6316 ± 0.033 | 0.7051 ± 0.038 | 0.7996 ± 0.044 | 0.9101 ± 0.052 | 1.05 ± 0.062 | 1.226 ± 0.078 | 1.473 ± 0.1 | 1.819 ± 0.13 | 2.259 ± 0.17
318.15 K | 0.5952 ± 0.032 | 0.6697 ± 0.036 | 0.7496 ± 0.041 | 0.8519 ± 0.048 | 0.9802 ± 0.058 | 1.138 ± 0.071 | 1.359 ± 0.091 | 1.668 ± 0.12 | 2.059 ± 0.15

C1COCCO1 + CC#N
viscosity [mPa·s], 101 kPa
Conditions | x2 = 0.1926 | x2 = 0.3492 | x2 = 0.4791 | x2 = 0.5886 | x2 = 0.6822 | x2 = 0.763 | x2 = 0.8336 | x2 = 0.8957 | x2 = 0.9508
298.15 K | 0.9468 ± 0.024 | 0.772 ± 0.02 | 0.6349 ± 0.016 | 0.5315 ± 0.014 | 0.4573 ± 0.012 | 0.4099 ± 0.011 | 0.3679 ± 0.0096 | 0.3482 ± 0.0091 | 0.3389 ± 0.0089
308.15 K | 0.8244 ± 0.021 | 0.6862 ± 0.018 | 0.5802 ± 0.015 | 0.503 ± 0.013 | 0.4477 ± 0.012 | 0.4079 ± 0.011 | 0.3775 ± 0.0098 | 0.3531 ± 0.0092 | 0.334 ± 0.0087
318.15 K | 0.7189 ± 0.019 | 0.5994 ± 0.015 | 0.5014 ± 0.013 | 0.4305 ± 0.011 | 0.3854 ± 0.01 | 0.3542 ± 0.0093 | 0.3354 ± 0.0088 | 0.3194 ± 0.0084 | 0.3076 ± 0.0081
